Results: article PMC6386598 (Cell chemical biology, 2018)

Test: Calcein leakage from SUVs, stated for several vesicle compositions together
Settings: control peptide; all SUVs tested: PC:PE (60:40), PC:PE (80:20), PC:PG (60:40)

In the case of melittin, the “calcein leakage (in words)” value is reported as “induced calcein leakage from all SUVs tested”.
